For data set [1], the system named is MRSA. Particulars: 24 h.
A short description of data set [2]: In vivo toxicity of TP3, intramuscular injection, blood biochemistry. The conditions noted are these: mice, i.m. 2 mg/mouse. The protocol:
To determine the toxicity of TP3, TP3 was dissolved in phosphate-buffered saline (PBS; pH 7.4) and administered as intramuscular bolus injections in the left thigh (2 mg/mouse). […] To study the effect of treatment on biochemistry, mice (n=6 in each group) were treated with PBS (control). Blood samples (0.2 ml) were collected day 1, 3 and 6 after the final injection of TP3, and used to determine the serum levels of glutamic oxaloacetic transaminase (GOT), glutamic pyruvic transaminase (GPT), blood urea nitrogen (BUN), creatinine (CRE), total glucose (GLU), and creatine phosphokinase (CPK).

Data set [3] concerns MRSA. Nature of the data set: Mouse model of MRSA sepsis, TP3. Particulars: for Mean ± SD count, Blood / Mean ± SD count, Liver / Mean ± SD count, Mesenteric lymph nodes / Mean ± SD count, Peritoneum / Mean ± SD count, Spleen: 48 h after injection; for survival rate: 8 days after MRSA infection, i.p. 10 min after MRSA, TP3 0.005 mg/g, vancomycin and methicillin 0.01 mg/g; for % lethality: monitored for 2 day after injection, MRSA 1 × 10^6 CFU i.p. In kind it is in vivo, Balb/c mice. Here is the method: (§1) Female Balb/c mice (6-8 weeks old) were injected intraperitoneally with 10^6 CFU MRSA per mouse. Ten minutes after MRSA injection, mice were injected intraperitoneally with vancomycin (0.01 mg/g mouse body weight), methicilin (0.01 mg/g mouse body weight), or TP3 (0.005 mg/g mouse body weight). In a second set of experiments, mice were given intraperitoneal injections of TP3 (0.005 mg/g mouse body weight) at 10, 60, 120, or 180 min after MRSA injection. The survival rate and status were recorded every 24 h for up to 192 h. To examine bacterial dissemination, mice were sacrificed at 48 h after injection with antibiotics or TP3, and the bacterial numbers in blood, peritoneum, spleen, liver, and mesenteric lymph nodes were recorded. Colony counts from the diluted bacterial solutions were expressed relative to those at the start of treatment. These experiments consisted of four groups, and each group contained 5 mice.

Data set [4] concerns MRSA. Nature of the data set: Mouse model of MRSA sepsis, TP4. It counts as in vivo, Balb/c mice. Particulars: for Mean ± SD count, Blood / Mean ± SD count, Liver / Mean ± SD count, Mesenteric lymph nodes / Mean ± SD count, Peritoneum / Mean ± SD count, Spleen: 48 hours after the last treatment; for survival rate: 8 days after MRSA infection, i.p. 10 min after MRSA, TP4 0.005 mg/g, vancomycin and methicillin 0.01 mg/g; for % lethality: monitored for 2 day after injection, MRSA 10^6 CFU i.p. Here is the method: as §1, with “weight), methicillin” for “weight), methicilin”, “or TP4” for “or TP3”, “of TP4” for “of TP3”, “injection. Survival” for “injection. The survival”, “or TP4,” for “or TP3,”, “contained 10” for “contained 5”
Infected mice were untreated, or treated with TP4, methicillin, or vancomycin via i.p. injection. Bacterial numbers in blood, peritoneum, spleen, liver, and mesenteric lymph nodes were subsequently recorded. Colony counts from the diluted bacterial solutions are expressed relative to those at the start of treatment. Each value represents the mean value from three determinations±standard deviation (SD).

In data set [5] the test system is MRSA. Nature of the data set: Mouse wound healing model, wound closure and microbial load, TP3. In kind it is in vivo, Balb/c mice. The protocol:
Female Balb/c mice (6-8 weeks old) were used for wound healing experiments. All mice were housed individually to prevent fighting and further damage to the wounds, and they were provided with food and water ad libitum. Mice were maintained on a 12 h light: dark cycle at room temperature, and acclimatized to the environment for at least a week before use in experiments. All researchers wore caps, sterile gloves, gowns, and shoe covers when handling mice. Hair was removed from the back of the mice by shaving, and a full thickness wound (1 cm in diameter) was then created in the exposed region. Each wound was inoculated with 50 μl of broth mix containing 10^6 cfu (colony forming units) of S. aureus. At 5 min after inoculation, 50 μl TP3 (2 mg/ml) in a total volume of 0.1 ml were applied. Thirty minutes after treatment, wounds were covered with Tegaderm (3M, St. Paul, Minn.) to maintain uniformity, and to prevent the mice from removing the treatments. Based on initial experiments, we examined the wounds at 0, 3, 5 and 19 days post-injury, so as not to disturb the infection. Such examinations captured the transitions from inflammatory to regenerative, and regenerative to resolving phases of wound healing. Animals were subsequently euthanized by CO2 inhalation and the wounds assessed. Four individuals in each group were examined at each time point for each experiment. Each wound was measured and then removed from the animal, with unwounded skin taken from the contralateral dorsum as a control. Each biopsy was bisected with three sections being used for tensiometry and histology, and two sections for quantitative determination of microbial load. Wound healing studies were repeated in triplicate.
Tracings were taken immediately after injury. For uncontaminated wounds, wound size was determined every second day. For contaminated wounds, mice were euthanized at days 3, 5, 19 and tracings of the wound edges were made. Wound areas were determined using the Macintosh Adobe Photoshop program, Histogram Analysis. The percentage of wound contraction was calculated as follows: % Wound contraction=(A0−At)/A0×100, where A0 is the original wound area, and At is the area of wound at the time of biopsy on every two days, accordingly.
Multidrug-resistant strains of Staphylococcus aureus commonly associated with human wound infections were selected to generate a polymicrobial solution. The MRSA strain is a clinical isolate from stool obtained from Taipei City Hospital (Heping Fuyou branch). The initial inoculum was prepared by culturing aerobic bacteria in Tryptic Soy Broth (TSB) overnight at 37° C. Broths were subsequently centrifuged at 1000 rpm for 15 min, and resuspended in TSB with 15% glycerol, or chopped meat extract with 15% glycerol (for aerobic bacteria). The concentration was adjusted to 10^6 cfu/50 μl, and stored at −80° C. Prior to wound application, […]

The test system of data set [6] is MRSA. Briefly: Histology and IHC of wound tissue, TP3. It counts as in vivo, Balb/c mice. Particulars: wounds. The protocol:
Skin tissues were removed and fixed as previously described. In brief, the cryosections were fixed with 4% formaldehyde, and the tissue samples were stained with hematoxylin/eosin, Giemsa, or Gram stain. IHC was analyzed by three independent investigators. Images were taken using a BX-51 microscope (Olympus, Japan).

Peptide text beside a SMILES is read from it.

On to `CC[C@H](C)[C@H](NC(=O)[C@H](CC(C)C)NC(=O)[C@H](CO)NC(=O)[C@H](Cc1c[nH]cn1)NC(=O)[C@@H](NC(=O)[C@H](Cc1c[nH]cn1)NC(=O)[C@H](CCCCN)NC(=O)CNC(=O)[C@@H](NC(=O)[C@H](CO)NC(=O)[C@H](Cc1ccccc1)NC(=O)[C@H](CC(C)C)NC(=O)CNC(=O)CNC(=O)[C@@H](NC(=O)[C@@H](NC(=O)[C@H](Cc1c[nH]cn1)NC(=O)[C@H](Cc1c[nH]cn1)NC(=O)[C@@H](NC(=O)[C@@H](N)Cc1ccccc1)[C@@H](C)CC)[C@@H](C)CC)[C@@H](C)CC)C(C)C)[C@@H](C)CC)C(=O)N[C@@H](Cc1c[nH]cn1)C(=O)NCC(=O)N[C@@H](Cc1c[nH]cn1)C(=O)O` [TP3, Tilapia piscidin 3] (H-FIHHIIGGLFSVGKHIHSLIHGH-OH), for which the “minimal inhibitory concentration (MIC)” value in data set [1] is > 3.9 µg/mL. In addition, in data set [2] (day 1), the BUN is 15.2 ± 2.4^A mg/dl, the CPK was 114 ± 21.9^A U/l, the GLU was 258.6 ± 28.2^AB mg/dl and the GOT was 122.6 ± 25.7^C U/l. In addition, in data set [2] (day 1), the GPT was 71.3 ± 8.6^C U/l. In data set [2] (day 3), the BUN is 17.4 ± 2.3^A mg/dl, the CPK was 88.3 ± 5.8^B U/l, the GLU is reported as 219.8 ± 8.2^A mg/dl and the GOT is reported as 47.3 ± 5.9^A U/l. For the same compound, the GPT in data set [2] (day 3) is given as 36.2 ± 2.7^AB U/l. In data set [2] (day 6), the BUN was 20.2 ± 1.8^AB mg/dl, the CPK is listed as 129 ± 15.3^AB U/l, the GLU is 290.8 ± 53.5^B mg/dl and the GOT is recorded as 46 ± 8.08^A U/l. Also, the GPT in data set [2] (day 6) is 35 ± 5.9^AB U/l.
With `COc1cccc(OC)c1C(=O)N[C@@H]1C(=O)N2[C@@H]1SC(C)(C)[C@@H]2C(=O)O` [methicillin], in data set [3], the “Mean ± SD count, Blood” value is 5.8 × 10^7 ± 1.7 × 10^7B CFU/ml; the “Mean ± SD count, Liver” value was 3.7 × 10^8 ± 8.1 × 10^7B CFU/ml; the “Mean ± SD count, Mesenteric lymph nodes” value is recorded as 6.4 × 10^7 ± 5.3 × 10^7B CFU/ml; the “Mean ± SD count, Peritoneum” value is reported as 4.9 × 10^9 ± 2.2 × 10^9B CFU/ml. In addition, in data set [3], the “Mean ± SD count, Spleen” value is listed as 9.5 × 10^8 ± 1.9 × 10^8B CFU/ml; the survival rate was 0%; the “% lethality” value was 20^B %. Besides, in data set [4], the “Mean ± SD count, Blood” value is reported as 4.1 × 10^7 ± 1.3 × 10^7B CFU/mL; the “Mean ± SD count, Liver” value is recorded as 2.7 × 10^8 ± 3.3 × 10^8B CFU/mL; the “Mean ± SD count, Mesenteric lymph nodes” value is 4.1 × 10^7 ± 3 × 10^7C CFU/mL; the “Mean ± SD count, Peritoneum” value is 2.3 × 10^9 ± 2 × 10^9B CFU/mL. Besides, in data set [4], the “Mean ± SD count, Spleen” value is given as 1.5 × 10^8 ± 2.1 × 10^7B CFU/mL; the survival rate is reported as 0%; the “% lethality” value is given as 20^B %. Further, the “Bacterial Count” value in data set [5] (day 0) is 5.2 × 10^4 CFU/10 μl. The “Bacterial Count” value in data set [5] (day 5) is on record as “Fatal”.
Turning to `CN[C@H](CC(C)C)C(=O)N[C@H]1C(=O)N[C@@H](CC(N)=O)C(=O)N[C@H]2C(=O)N[C@H]3C(=O)N[C@H](C(=O)N[C@H](C(=O)O)c4cc(O)cc(O)c4-c4cc3ccc4O)[C@H](O)c3ccc(c(Cl)c3)Oc3cc2cc(c3O[C@@H]2O[C@H](CO)[C@@H](O)[C@H](O)[C@H]2O[C@H]2C[C@](C)(N)[C@H](O)[C@H](C)O2)Oc2ccc(cc2Cl)[C@H]1O` [vancomycin], the “overall epidermal maturation compared to the TP3 group” value in data set [6] is reported as “displayed impairment in overall epidermal maturation”. In addition, in data set [3], the “Mean ± SD count, Blood” value was 8 × 10^3 ± 1.3 × 10^5B CFU/ml; the “Mean ± SD count, Liver” value is 1.7 × 10^8 ± 3.8 × 10^7B CFU/ml; the “Mean ± SD count, Mesenteric lymph nodes” value was 2 × 10^8 ± 4.4 × 10^6A CFU/ml; the “Mean ± SD count, Peritoneum” value is 2.7 × 10^9 ± 1.5 × 10^9A CFU/ml. Moreover, in data set [3], the “Mean ± SD count, Spleen” value is 1.8 × 10^3 ± 8.4 × 10^7B CFU/ml; the survival rate is listed as 80%; the “% lethality” value was 0^A %. For the same compound, in data set [4], the “Mean ± SD count, Blood” value is 8 × 10^4 ± 1.1 × 10^4B CFU/mL; the “Mean ± SD count, Liver” value was 1.3 × 10^7 ± 1.8 × 10^3B CFU/mL; the “Mean ± SD count, Mesenteric lymph nodes” value is on record as 1 × 10^7 ± 4 × 10^4B CFU/mL; the “Mean ± SD count, Peritoneum” value is reported as 1.5 × 10^6 ± 1 × 10^3A CFU/mL. Besides, in data set [4], the “Mean ± SD count, Spleen” value was 1.4 × 10^7 ± 1.1 × 10^4B CFU/mL; the survival rate was determined as 80%; the “% lethality” value was 10^AB %. Further, the “Bacterial Count” value in data set [5] (day 0) is 4.9 × 10^4 CFU/10 μl. Also, the “Bacterial Count” value in data set [5] (day 3) was 3 × 10^5 CFU/10 μl. The “Bacterial Count” value in data set [5] (day 5) is recorded as 2.6 × 10^3 CFU/10 μl. The “Bacterial Count” value in data set [5] (day 19) is 42 CFU/10 μl.

Values taken from patent US9925235B2, “Tilapia piscidins for use in enhancement of wound healing” (Academia Sinica, priority 2015, dated 2018).
